Test results as given in US8729053B2, “Nuclear factor kappa B pathway inhibitor composition and use of same” (The United States of America, as represented by the …, priority 2008, dated 2014).
pIC50: −log10 of the molar value. Counter-ions that a name gives are not always drawn.

Key:
NFκB [1] = assay: NFκB luciferase reporter assay in HEK293 cells; format: cell-based
Description: All expression plasmids were transiently transfected into HEK293 cells in a 96-well plate (0.1 μg/well) by using Effectene transfection reagent (Qiagen, Valencia, Calif.) according to the manufacturer's manual. HEK293 cells were maintained in Dulbecco's modified Eagle medium (Sigma, St. Louis, Mo.) supplemented with 10% fetal bovine serum (Atlanta Biologicals, Lawrenceville, Ga.) and incubated at 37° C. in a 5% CO2 incubator. After 24 hrs incubation, the medium was changed to DMEM with 0.2% FBS, and the transfectants were exposed to various concentrations of compound I and TPA (10 ng/ml). Cells were lysed with passive lysis buffer and the luciferase assay was performed using the Firefly-Luciferase reporter assay system (Promega, Madison, Wis.) and MLX Luminometer (Dynex Technology, Chantilly, Va.).
Three different luciferase reporter genes, AP-1 reporter containing four times TRE consensus originated from GCN4 and SRE reporter purchased from Stratagene (La Jolla, Calif.) respectively are as described previously (Suzukawa et al., Environ. Health Perspect., 2002, 110, 865-70). NFκB reporter is driven by five times NFκB responsive element inserted into Cis-reporter backbone (Stratagene, La Jolla, Calif.). Others include mouse COX-2 promoter region from −203 to +70 relative to the transcription site inserted into pTIS10L vector (Kim and Fischer, J. Biol. Chem., 1998, 273, 27686-94), human uPAR promoter region from −141 to +47 relative to transcription start site in pGL3 vector (Wang et al., Eur. J. Biochem., 2000, 267, 3248-54), and human VEGF promoter sequence from −2274 to +379 inserted into the pGL2 vector (Ding et al., J. Biol. Chem., 2006, 281, 9093-100).
To evaluate whether the compound I biological activity can imitate TAM67 specificity, three different transcriptional promoter reporters were used, AP-1, NFκB, and SRE (Serum response element) in luciferase reporter assays (FIG. 1A: The transfected cells were pre-treated with varied concentrations of compound I or DMSO for 1 hour before 18 hours stimulation by TPA (10 ng/ml) or DMSO as vehicle. An asterisk (*) indicates a separate experiment with NFκB dependent luciferase only. Assays were performed with two independent experiments each in quadruplicate.). All three activities were induced by TPA but only induction of AP-I and NFκB were inhibited by TAM67. The SRE reporter was used as a specificity control and indicator of cell proliferation. TPA-induced SRE activity was not repressed by TAM67 when coexpressed with the SRE-Luc reporter in HEK293 cells. The same concentration (10 ng/ml, 16.2 nM) and incubation time (18 hrs) were used for TPA induction as previously used for the high throughput screen (HTS) (Ruocco et al., J. Biomol. Screen., 2007, 12, 133-9) along with 1 h pretreatment of compound I. The screening results had tested concentrations as high as 40 μM compound I with cell numbers showing 95.5+/−6.2% of DMSO control (ave+/− sd, n=3) by the XTT assay in HEK293T cells.

IKKβ = molecular target: T1, IKKβ (Homo sapiens, UniProt O14920); assay: Off-chip incubation mobility-shift kinase assay, IKKβ; format: biochemical
T1 construct: purchased Calbiochem
T1 sequence (O14920 1-756): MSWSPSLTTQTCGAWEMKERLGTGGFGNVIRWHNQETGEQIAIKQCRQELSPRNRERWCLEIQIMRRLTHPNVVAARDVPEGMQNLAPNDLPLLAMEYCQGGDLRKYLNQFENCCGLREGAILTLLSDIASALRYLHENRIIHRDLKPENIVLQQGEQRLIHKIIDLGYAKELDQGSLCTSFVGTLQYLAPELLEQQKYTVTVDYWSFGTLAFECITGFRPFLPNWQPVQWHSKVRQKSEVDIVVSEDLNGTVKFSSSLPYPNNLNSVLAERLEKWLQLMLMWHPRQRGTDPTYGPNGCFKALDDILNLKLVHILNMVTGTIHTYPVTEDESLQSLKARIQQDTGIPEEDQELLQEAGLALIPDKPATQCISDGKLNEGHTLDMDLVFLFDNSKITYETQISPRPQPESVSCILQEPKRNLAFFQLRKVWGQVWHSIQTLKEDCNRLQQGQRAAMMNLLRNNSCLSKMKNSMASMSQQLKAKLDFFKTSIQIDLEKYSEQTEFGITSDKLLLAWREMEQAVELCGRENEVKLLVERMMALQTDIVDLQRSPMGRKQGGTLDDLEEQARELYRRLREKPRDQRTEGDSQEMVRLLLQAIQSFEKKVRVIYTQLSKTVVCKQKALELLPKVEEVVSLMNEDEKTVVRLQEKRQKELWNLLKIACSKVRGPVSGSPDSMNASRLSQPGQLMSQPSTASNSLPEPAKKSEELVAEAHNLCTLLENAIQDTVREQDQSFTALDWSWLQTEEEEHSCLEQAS
Description: In an attempt to determine whether compound I interferes with ATP binding to the catalytic site, the activity of compound I was measured with fully activated, phosphorylated IKKα or IKKβ. […] However, whether this compound interacts outside of the ATP binding pocket of IKK as an ATP non-competitive inhibitor similar to BMS-345541 is unknown. […] Luciferase activities with TPA induction alone were set at 100% and the relative activities with TPA in the presence of compounds are shown.

NFκB [2] = assay: EMSA of NFκB DNA binding, HEK293 nuclear fractions; format: cell-based
Description: EMSA was performed with the nuclear fraction of HEK293 cell using LightShift Chemiluminescent EMSA Kit (Pierce Biotechnology, Rockford, Ill.) according to the manufacture's instruction. Oligonucleotides for NFκB, NF-1, and AP-1 were labeled with biotin by Biotin 3′ End DNA labeling Kit (Pierce Biotechnology, Rockford, Ill.). The quantified 15 μg of nuclear extracts were incubated for 20 mins with 1 μg/μl Poly (dI.dC), biotin end-label target nucleotides in 20 μl binding buffer DNA-protein complexes were fractionated on 6% a polyacrylamide gel and transferred to a nylon membrane. The membranes were processed to detect biotin-label DNA by cross-linking, blocking, and detection incubations. Results were obtained by X-ray film exposure for 10 sec and development. The target sequences of oligonucleotides for NFκB, NF-1, and AP-1 are as follows;
To determine whether the effect of compound I on nuclear translocation of NFκB leads to inhibited binding of NFκB proteins to DNA, EMSA in HEK293 cells was performed. […] TPA-induced binding complex was attenuated by pretreatment with compound I in a dose-dependent manner (lanes 5-9). This binding inhibition parallels the inhibition of luciferase reporter transactivation and inhibition of nuclear translocation of NFκB proteins. The TPA-induced binding complex disappeared when the labeled NFκB oligonucleotide was competed with an excess of unlabelled probe (90× fold).

[3] = concentrations as low as 1.1 μM

Cc1cc(N)ccc1N=Nc1ccc(S(=O)(=O)CCOS(=O)(=O)O)cc1 [compound I, 2-(4-((4-amino-2-methylphenyl)diazenyl)phenylsulfonyl)ethyl hydrogen sulfate]
Inhibition of TPA-induced NFκB luciferase activity (NFκB [1]; HEK293, TPA 10 ng/ml, compound I at all concentrations tested): dose-dependently inhibited | pIC50 (NFκB [1]; Homo sapiens, HEK293, 1 h pretreatment, TPA 10 ng/ml 18 hrs, read-out: IC50 against TPA-induced NFκB reporter): ~5.40 | Inhibition of NFκB induced by TNFα (NFκB [1]; TNFα induction): dose-dependent inhibition | TPA-induced NFκB luciferase activity (NFκB [1]; compound at 17.0 μM): completely blocked to the non-induced level | Transcriptional activation of NFκB dependent genes (NFκB [1]; [3]): repressed | Basal NFκB luciferase activity (NFκB [1]; without TPA induction): inhibited, but to a lesser extent | Binding to the ATP binding pocket of IKKβ (IKKβ): no activity | Inhibition of IKKβ activity, phosphorylation of a peptide substrate (IKKβ; fully activated, phosphorylated IKKβ, 1.25, 2.50, 5.00, and 10.00 μM): does not inhibit | NFκB DNA binding (NFκB [2]; [3]): repressed | TPA-induced NFκB DNA binding complex, dose-dependent manner (NFκB [2]; lanes 5-9, 1 hour pretreatment, TPA 18 hours): attenuated | TPA-induced NFκB DNA binding complex (NFκB [2]; pretreatment at 17 μM): marked loss of binding complex
